Tests used:
[1] = tested on: rice; assay: Test C flooded paddy test; format: in vivo, Oryza sativa; settings: Flood
Procedure, shortened: (§1)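 Plants at the 2-leaf stage in pots flooded to 3 cm were treated by applying compound directly to the paddy water, with depth held throughout. After 13 to 15 days in a greenhouse, response was rated visually against controls on a 0 (no effect) to 100 (complete control) scale.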

[2] = tested on: ryegrass, Italian; assay: Test A pre-/postemergence herbicide test; format: in vivo, Lolium multiflorum; settings: for Plant response rating, Ryegrass, Italian: 0 to 100 scale
Procedure, shortened: (§2)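 Both application timings used compounds in a non-phytotoxic solvent plus surfactant. Pre-emergence: soil sprayed directly after seeding into loam/sand. Post-emergence: foliage of 2–10 cm seedlings (1–2 leaves) sprayed. Injury rated ~10 days later, 0–100.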

[3] = tested on: barnyardgrass; assay: Test C flooded paddy test; format: in vivo, Echinochloa crus-galli; settings: Flood
Procedure, shortened: as §1

[4] = tested on: galium; assay: Test A postemergence herbicide test; format: in vivo, Galium aparine; settings: for Plant response rating, Galium: 125 g ai/ha, 0 to 100 scale; for Galium plant response rating (0 to 100 scale, 0 is no effect, 100 is complete control): 500 g ai/ha
Procedure, shortened: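 Injury was rated visually about 10 days after treatment on a 0 (no effect) to 100 (complete control) scale, compared with untreated plants. Test chemicals were sprayed postemergence onto greenhouse plants 2–10 cm high at one to two leaves, grown in a loam–sand blend.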

[5] = tested on: ragweed; assay: Test A pre-/postemergence herbicide test; format: in vivo, Ambrosia elatior; settings: for Plant response rating, Ragweed: 0 to 100 scale
Procedure, shortened: as §2

[6] = tested on: ducksalad; assay: Test C flooded paddy test; format: in vivo, Heteranthera limosa; settings: Flood
Procedure, shortened: as §1

[7] = tested on: sedge, umbrella; assay: Test C flooded paddy test; format: in vivo, Cyperus difformis; settings: Flood
Procedure, shortened: as §1

[8] = 125 g ai/ha, scale of 0 to 100 where 0 is no effect and 100 is complete control, 13 to 15 days
[9] = 250 g ai/ha, scale of 0 to 100 where 0 is no effect and 100 is complete control, 13 to 15 days
[10] = 125 g ai/ha, visual rating, 0 no effect, 100 complete control, approximately 10 days, preemergence
[11] = Postemergence, 125 g ai/ha, 0 is no effect, 100 is complete control
[12] = preemergence, 500 g ai/ha, 0 is no effect and 100 is complete control
[13] = 62 g ai/ha, scale of 0 to 100 where 0 is no effect and 100 is complete control, 13 to 15 days
[14] = Postemergence, 125 g ai/ha, 0 no effect, 100 complete control

Compound | Plant response rating, Rice [1, 8] | Plant response rating, Rice ([1]; 500 g ai/ha, scale 0 to 100) | Plant response rating, Ryegrass, Italian [2, 10] | Ryegrass, Italian plant response rating (0 to 100 scale, 0 is no effect, 100 is complete control) ([2]; Postemergence, 500 g ai/ha) | Plant response rating, Barnyardgrass [3, 8] | Plant response rating, Barnyardgrass ([3]; 500 g ai/ha, scale 0 to 100) | Galium plant response rating (0 to 100 scale, 0 is no effect, 100 is complete control) [4] | Plant response rating, Ragweed [5, 10] | Ragweed plant response rating (0 to 100 scale, 0 is no effect, 100 is complete control) ([5]; Postemergence, 500 g ai/ha) | Plant response rating, Ducksalad [6, 8] | Plant response rating, Ducksalad ([6]; 500 g ai/ha, scale 0 to 100) | Plant response rating, Sedge, Umbrella [7, 8] | Plant response rating, Sedge, Umbrella ([7]; 500 g ai/ha, scale 0 to 100) | also measured
O=C1NCC(c2cccc(C(F)F)c2)C1C(=O)Nc1ccccc1F (racemic) [Compound 210] | 0 | 0 | 0 | 50 | 0 | 70 | 60 | 0 | 0 | 0 | 100 | 0 | 0 | Plant response rating, Rice [1, 9]: 0; Plant response rating, Rice ([1]; 1000 g ai/ha, scale 0 to 100): 0; Plant response rating, Ryegrass, Italian [2, 11]: 0; Plant response rating, Ryegrass, Italian [2, 12]: 50; Plant response rating, Barnyardgrass [3, 9]: 45; Plant response rating, Barnyardgrass ([3]; 1000 g ai/ha, scale 0 to 100): 75; Plant response rating, Galium ([4]; 0 is no effect, 100 is complete control): 30; Plant response rating, Ragweed [5, 11]: 0; Plant response rating, Ragweed [5, 12]: 30; Plant response rating, Ducksalad [6, 9]: 80; Plant response rating, Ducksalad ([6]; 1000 g ai/ha, scale 0 to 100): 100; Plant response rating, Sedge, Umbrella [7, 9]: 0; Plant response rating, Sedge, Umbrella ([7]; 1000 g ai/ha, scale 0 to 100): 0
O=C1NCC(c2ccc(F)cc2)C1C(=O)Nc1ccc(F)c(F)c1F (racemic) [Compound 120] | 0 | 0 | 30 | 50 | 50 | 75 | 60 | 60 | 50 | 100 | 100 | 0 | 0 | Plant response rating, Rice [1, 13]: 0; Plant response rating, Rice ([1]; 250 g ai/ha, scale 0 to 100): 0; Plant response rating, Ryegrass, Italian [2, 14]: 30; Plant response rating, Ryegrass, Italian ([2]; preemergence, 500 g ai/ha): 50; Plant response rating, Barnyardgrass [3, 13]: 40; Plant response rating, Barnyardgrass ([3]; 250 g ai/ha, scale 0 to 100): 60; Plant response rating, Galium ([4]; 0 no effect, 100 complete control): 50; Plant response rating, Ragweed [5, 14]: 30; Plant response rating, Ragweed ([5]; preemergence, 500 g ai/ha): 80; Plant response rating, Ducksalad [6, 13]: 100; Plant response rating, Ducksalad ([6]; 250 g ai/ha, scale 0 to 100): 100; Plant response rating, Sedge, Umbrella [7, 13]: 0; Plant response rating, Sedge, Umbrella ([7]; 250 g ai/ha, scale 0 to 100): 0
